Test system: batrachotoxin (BTX) binding site of the sodium channel
Assay: Affinity for the batrachotoxin (BTX) binding site of the sodium channel ([3H]-Batrachotoxinin A20 benzoate, rat cerebrocortex synaptosomes)
Conditions: [3H]-Batrachotoxinin A20 benzoate 10 nM, test concentration not given

SMILES	BTX inhibition
O=C(CCc1ccccc1)NC1CCc2nc(NC(=O)c3ccc(F)cc3)ncc2C1 (centres unmarked) [Example 94, 4-fluoro-N-[6-(3-phenyl-propionylamino)-5,6,7,8-tetrahydro-quinazolin-2-yl]-benzamide]	47
CCOc1ccccc1C(=O)Nc1ncc2c(n1)CCN(S(=O)(=O)c1ccccc1C(=O)OC)C2 [Example 82, 2-[2-(2-ethoxy-benzoylamino)-7,8-dihydro-5H-pyrido[4,3-d]pyrimidine-6-sulfonyl]-benzoic acid methyl ester]	38
O=C(Nc1ncc2c(n1)CCN(C(=O)c1ccc(Cl)c(Cl)c1)C2)c1ccccc1F [Example 113, N-[6-(3,4-dichloro-benzoyl)-5,6,7,8-tetrahydro-pyrido[4,3-d]pyrimidin-2-yl]-2-fluoro-benzamide]	38
Cc1cc(C)c(S(=O)(=O)N2CCc3nc(NC(=O)c4ccc(Cl)c(Cl)c4)ncc3C2)c(C)c1 [Example 95, 3,4-dichloro-N-[6-(2,4,6-trimethyl-benzenesulfonyl)-5,6,7,8-tetrahydro-pyrido[4,3-d]pyrimidin-2-yl]-benzamide]	77
COc1ccccc1C(=O)Nc1ncc2c(n1)CCN(C(=O)COCc1ccccc1)C2 [Example 195, N-[6-(2-benzyloxy-acetyl)-5,6,7,8-tetrahydro-pyrido[4,3-d]pyrimidin-2-yl]-2-methoxy-benzamide]	35
O=C(Nc1ncc2c(n1)CCN(C(=O)c1sc3ccccc3c1Cl)C2)c1cccs1 [Example 110, thiophene-2-carboxylic acid [6-(3-chloro-benzo[b]thiophene-2-carbonyl)-5,6,7,8-tetrahydro-pyrido[4,3-d]pyrimidin-2-yl]-amide]	40
CCc1ccc(C(=O)Nc2ncc3c(n2)CCN(S(=O)(=O)c2ccc4c(c2)CN(C(=O)C(F)(F)F)CC4)C3)cc1 [Example 157, 4-ethyl-N-{6-[2-(2,2,2-trifluoro-acetyl)-1,2,3,4-tetrahydro-isoquinoline-7-sulfonyl]-5,6,7,8-tetrahydro-pyrido[4,3-d]pyrimidin-2-yl}-benzamide]	63
O=C(Nc1ncc2c(n1)CCN(C(=O)c1sc3ccccc3c1Cl)C2)c1ccccc1 [Example 120, N-[6-(3-chloro-benzo[b]thiophene-2-carbonyl)-5,6,7,8-tetrahydro-pyrido[4,3-d]pyrimidin-2-yl]-benzamide]	48
O=C(Nc1ncc2c(n1)CCN(C(=O)C1CCc3ccccc3C1)C2)c1cccc(F)c1 (centres unmarked) [Example 141, 3-fluoro-N-[6-(1,2,3,4-tetrahydro-naphthalene-2-carbonyl)-5,6,7,8-tetrahydro-pyrido[4,3-d]pyrimidin-2-yl]-benzamide]	63
O=C(Nc1ncc2c(n1)CCC(NS(=O)(=O)c1cc(Cl)sc1Cl)C2)c1cccs1 (centres unmarked) [Example 180, thiophene-2-carboxylic acid [6-(2,5-dichloro-thiophene-3-sulfonylamino)-5,6,7,8-tetrahydro-quinazolin-2-yl]-amide]	46
Cc1ccc(C(=O)N2CCc3nc(NC(=O)c4ccc(C(C)(C)C)cc4)ncc3C2)cc1[N+](=O)[O-] [Example 92, 4-tert-butyl-N-[6-(4-methyl-3-nitro-benzoyl)-5,6,7,8-tetrahydro-pyrido[4,3-d]pyrimidin-2-yl]-benzamide]	75
CCc1ccc(C(=O)Nc2ncc3c(n2)CCN(C(=O)c2ccc(Cl)c(Cl)c2)C3)cc1 [Example 101, N-[6-(3,4-dichloro-benzoyl)-5,6,7,8-tetrahydro-pyrido[4,3-d]pyrimidin-2-yl]-4-ethyl-benzamide]	68
O=C(Nc1ncc2c(n1)CCN(C(=O)Cc1ccc(Cl)cc1)C2)c1ccc(Cl)c(Cl)c1 [Example 126, 3,4-dichloro-N-{6-[2-(4-chloro-phenyl)-acetyl]-5,6,7,8-tetrahydro-pyrido[4,3-d]pyrimidin-2-yl}-benzamide]	70
CCc1ccc(C(=O)Nc2ncc3c(n2)CCN(S(=O)(=O)c2ccccc2Cl)C3)cc1 [Example 114, N-[6-(2-chloro-benzenesulfonyl)-5,6,7,8-tetrahydro-pyrido[4,3-d]pyrimidin-2-yl]-4-ethyl-benzamide]	82
O=C(Nc1ncc2c(n1)CCN(C(=O)c1cccc(F)c1)C2)c1cccc2ccccc12 [Example 183, naphthalene-1-carboxylic acid [6-(3-fluoro-benzoyl)-5,6,7,8-tetrahydro-pyrido[4,3-d]pyrimidin-2-yl]-amide]	31
Cc1ccc(S(=O)(=O)N2CCc3nc(NC(=O)c4cccc(F)c4)ncc3C2)cc1 [Example 143, 3-fluoro-N-[6-(toluene-4-sulfonyl)-5,6,7,8-tetrahydro-pyrido[4,3-d]pyrimidin-2-yl]-benzamide]	61
CC(C)(C)c1ccc(C(=O)Nc2ncc3c(n2)CCN(S(=O)(=O)c2ccc4c(c2)OCCO4)C3)cc1 [Example 186, 4-tert-butyl-N-[6-(2,3-dihydro-benzo[1,4]dioxin-6-sulfonyl)-5,6,7,8-tetrahydro-pyrido[4,3-d]pyrimidin-2-yl]-benzamide]	77
O=C(Nc1ncc2c(n1)CCN(C(=O)C1=Cc3ccccc3OC1)C2)c1ccc(F)c(F)c1 [Example 175, N-[6-(2H-chromene-3-carbonyl)-5,6,7,8-tetrahydro-pyrido[4,3-d]pyrimidin-2-yl]-3,4-difluoro-benzamide]	49

SMILES	BTX inhibition
Cc1cc(C)c(C)c(S(=O)(=O)N2CCc3nc(NC(=O)c4cccs4)ncc3C2)c1C [Example 99, thiophene-2-carboxylic acid [6-(2,3,5,6-tetramethyl-benzenesulfonyl)-5,6,7,8-tetrahydro-pyrido[4,3-d]pyrimidin-2-yl]-amide]	78
CCCC(=O)Nc1ncc2c(n1)CCC(NC(=O)C=Cc1cccc(C(F)(F)F)c1)C2 (centres unmarked) [Example 168, N-(2-butyrylamino-5,6,7,8-tetrahydro-quinazolin-6-yl)-3-(3-trifluoromethyl-phenyl)-acrylamide]	39
O=C(Nc1ncc2c(n1)CCN(S(=O)(=O)c1cccc(Br)c1)C2)c1cccc(Cl)c1 [Example 125, N-[6-(3-bromo-benzenesulfonyl)-5,6,7,8-tetrahydro-pyrido[4,3-d]pyrimidin-2-yl]-3-chloro-benzamide]	66
O=C(Nc1ncc2c(n1)CCN(S(=O)(=O)c1cccs1)C2)c1ccc(F)c(F)c1 [Example 72, 3,4-difluoro-N-[6-(thiophene-2-sulfonyl)-5,6,7,8-tetrahydro-pyrido[4,3-d]pyrimidin-2-yl]-benzamide]	31
CCc1ccc(C(=O)Nc2ncc3c(n2)CCN(C(=O)c2ccc(-n4cccn4)cc2)C3)cc1 [Example 74, 4-ethyl-N-[6-(4-pyrazol-1-yl-benzoyl)-5,6,7,8-tetrahydro-pyrido[4,3-d]pyrimidin-2-yl]-benzamide]	66
O=C(Nc1ncc2c(n1)CCN(C(=O)CCC1CCCC1)C2)c1ccncc1 [Example 132, N-[6-(3-cyclopentyl-propionyl)-5,6,7,8-tetrahydro-pyrido[4,3-d]pyrimidin-2-yl]-isonicotinamide]	72
O=C(Nc1ncc2c(n1)CCN(S(=O)(=O)c1ccc(Cl)s1)C2)c1cccc2ccccc12 [Example 117, naphthalene-1-carboxylic acid [6-(5-chloro-thiophene-2-sulfonyl)-5,6,7,8-tetrahydro-pyrido[4,3-d]pyrimidin-2-yl]-amide]	37
O=C(Nc1ncc2c(n1)CCN(C(=O)c1ccc3ccccc3c1)C2)c1ccc(Cl)cc1 [Example 69]	64
COc1ccccc1C(=O)Nc1ncc2c(n1)CCN(C(=O)c1cc(-c3ccc(Cl)cc3)oc1C)C2 [Example 78, N-{6-[5-(4-chloro-phenyl)-2-methyl-furan-3-carbonyl]-5,6,7,8-tetrahydro-pyrido[4,3-d]pyrimidin-2-yl}-2-methoxy-benzamide]	31
CCCC(=O)Nc1ncc2c(n1)CCC(NS(=O)(=O)c1ccc(C(C)(C)CC)cc1)C2 (centres unmarked) [Example 167, N-{6-[4-(1,1-dimethyl-propyl)-benzenesulfonylamino]-5,6,7,8-tetrahydro-quinazolin-2-yl}-butyramide]	51
Cc1cccc(C(=O)Nc2ncc3c(n2)CCN(S(=O)(=O)c2sc(C)nc2C)C3)c1 [Example 68, N-[6-(2,4-dimethyl-thiazole-5-sulfonyl)-5,6,7,8-tetrahydro-pyrido[4,3-d]pyrimidin-2-yl]-3-methyl-benzamide]	35
COc1cccc(C(=O)Nc2ncc3c(n2)CCN(S(=O)(=O)c2cc(Br)ccc2OC)C3)c1 [Example 129, N-[6-(5-bromo-2-methoxy-benzenesulfonyl)-5,6,7,8-tetrahydro-pyrido[4,3-d]pyrimidin-2-yl]-3-methoxy-benzamide]	76
Cc1ccc(C)c(CC(=O)NC2CCc3nc(NC(=O)c4ccc(F)cc4)ncc3C2)c1 (centres unmarked) [Example 163, N-{6-[2-(2,5-dimethyl-phenyl)-acetylamino]-5,6,7,8-tetrahydro-quinazolin-2-yl}-4-fluoro-benzamide]	28
CCCCCC(=O)NC1CCc2nc(NC(=O)c3ccc(F)cc3)ncc2C1 (centres unmarked) [Example 128, 4-fluoro-N-(6-hexanoylamino-5,6,7,8-tetrahydro-quinazolin-2-yl)-benzamide]	33
O=C(Nc1ncc2c(n1)CCN(C(=O)Cc1ccc(C(F)(F)F)cc1)C2)c1ccccc1 [Example 155, N-{6-[2-(4-trifluoromethyl-phenyl)-acetyl]-5,6,7,8-tetrahydro-pyrido[4,3-d]pyrimidin-2-yl}-benzamide]	62
CCOc1ccccc1C(=O)Nc1ncc2c(n1)CCN(C(=O)c1sccc1Cl)C2 [Example 145, N-[6-(3-chloro-thiophene-2-carbonyl)-5,6,7,8-tetrahydro-pyrido[4,3-d]pyrimidin-2-yl]-2-ethoxy-benzamide]	46
Cc1nc(C)c(S(=O)(=O)N2CCc3nc(NC(=O)c4ccc(Cl)cc4)ncc3C2)s1 [Example 79, 4-chloro-N-[6-(2,4-dimethyl-thiazole-5-sulfonyl)-5,6,7,8-tetrahydro-pyrido[4,3-d]pyrimidin-2-yl]-benzamide]	34

Reference: patent US20090176811A1, “Substituted 5,6,7,8-Tetrahydro-pyrido[4,3-d]pyrimidine-2-yl Compounds and 5,6,7,8-Tetrahydro-quinazoline-2-yl Compounds” (GRUENENTHAL GmbH, priority 2004, published 2009)
